Measurements reported in patent US20260240968A1, “METHODS AND MODIFICATIONS FOR REDUCING INNATE IMMUNE RESPONSES TO RNA” (The Board of Trustees of the Leland Stanford Junior …, priority 2023, published 2026).

How the values were obtained:
HEK293 cells [1] = test: Luminex human 48-plex analysis of cytokines and immune activation markers released from HEK293 cells lipofected with eGFP-mRNA with or without cloaking; assay type: cell-based
Experimental: As an initial assessment of how cloaking affects the innate immune responses of mRNA, we measured the release of cytokines and immune activation markers from HEK293 cells that were lipofected by eGFP-mRNA with or without cloaking. HEK293 cells were transfected with 2 μg of mRNA with lipofectamine MessengerMax. […] In comparison. […] The translation of eGFP-mRNA was insignificant at this time (6 hours post-transfection), so the release of these immunomodulatory cytokines/chemokines is largely due to cells sensing the mRNA.
We further evaluated the effect of 2′-acylation on long-term immune response with Luminex human 48-plex assays in HEK293 cells that were transfected with modified eGFP-mRNA (FIG. 3 and FIG. 4).
We next investigated whether the chemical structure of acylating reagents may differentially modulate certain innate immune response pathways. […] Because the maximum level of cloaking varied among these reagents, we proceeded to equimolarly cloak at ~50% of unpaired accessible 2′-hydroxyls of eGFP-mRNA with a similar level of modification. We measured the release of cytokines and immune activation markers from HEK293 cells that were lipofected by modified eGFP-mRNA with or without cloaking. HEK293 cells were transfected with 2 μg of mRNA aliquots with lipofectamine MessengerMax. […] Thus, acylating reagents with diverse chemical structures can differentially modulate certain innate immune-responsive pathways.

HEK293 cells [2] = test: Spontaneous restoration of translation of cloaked GFP-mRNA (green fluorescence) in HEK293 cells; conditions: normal cells (HEK293)
Text: (§2) Thus, we investigated whether adducts by N,N-dimethylglycine acylimidazole can spontaneously release within the cells. To explored this, we employed cloaked mRNAs encoding a green fluorescence protein (GFP) (FIG. 6).
We screened these acylimidazole reagents for spontaneous restoration of mRNA translation in HEK293 cells by transfection with d2GFP-mRNA aliquots that were acylated with these acylimidazole reagents at various levels of 2′-modification. We monitored the green fluorescence signal in HEK293 cells over three days.

SW480 cells = conditions: cancerous cells (SW480); cloaked mRNA
Text: as §2

ISG15 = test: RT-qPCR of ISG15 mRNA expression (Type I innate immune response via the RIG-1 pathway) in HEK293 cells lipofected with eGFP-mRNA; assay type: cell-based, human; conditions: HEK293 lipofected by eGFP-mRNA with or without cloaking by DMG-Im
Text: (§1) Transfection of in vitro transcribed RNA can trigger a potent Type I innate immune response in HEK293 cells (PMID: 30011268). Next, we investigated whether cloaking may modulate such response in HEK293 cells. To do this, HEK293 cells were lipofected by eGFP-mRNA with or without cloaking by DMG-Im. We measured the mRNA expression level of ISG15, an activation marker downstream of Type I innate immune response via the RIG-1 pathway.
as §1, with “DMG-lm.” for “DMG-Im.”

[3] = long-term immune response, HEK293 transfected with modified eGFP-mRNA

Text for HeLa cells: as §2

Compound: CN(C)CC(=O)n1ccnc1 [DMG-Im, N,N-dimethylglycine acylimidazole]
- expression of some proinflammatory cytokines and immune activation markers over time (HEK293 cells [1]; FIGS. 3A-3B, cloaking by DMG-Im): potently modulates
- release of proinflammatory chemokines and cytokines, including VEGF, RANTES/CCL5, PDGFAA, and IL8 (HEK293 cells [1]; HEK293 transfected with 2 μg of eGFP-mRNA, lipofectamine MessengerMax, six hours post-transfection): potently suppressed
- expression profiles of immune response mediators including type I interferon, CCL5, IL-8, IL-3, VEGF (HEK293 cells [1]; RNA cloaked with the R group, FIGS. 9 and 10): distinct expression profiles
- expression of many mRNA-stimulated cytokines (HEK293 cells [1]; cloaked vs unmodified eGFP-mRNA, six hours post-transfection): not significantly modulated
- reduction of the release of proinflammatory cytokines and activation (VEGF, RANTES/CCL5, PDGFAA, IL8) (HEK293 cells [1]; eGFP-mRNA with intermediate cloaking (~50% of unpaired 2′-hydroxyls) vs unmodified, 2 μg, six hours post-transfection): ≤ 90%
- release of Granulocyte-macrophage colony-stimulating factor (GMCSF) over time (HEK293 cells [1]; [3]): increasingly suppressed overtime
- release of proinflammatory Chemokine ligand 5 (CCL5) over time (HEK293 cells [1]; [3]): increasingly suppressed overtime
- secretion of Vascular endothelial growth factor (VEGF) over time (HEK293 cells [1]; [3]): increasingly less suppressed over time
- translation of GFP-mRNA with N,N-dimethylglycine adducts (HEK293 cells [2]): spontaneously restored
- extension of the translational lifespan of mRNA encoding destabilized green fluorescent protein d2GFP (HeLa cells; HeLa cells, d2GFP-mRNA cloaked with DMG-Im): 31%
- translation of GFP-mRNA with N,N-dimethylglycine adducts (HeLa cells; cancerous cells (HeLa), cloaked mRNA): spontaneously restored
- translation of GFP-mRNA with N,N-dimethylglycine adducts (SW480 cells): spontaneously restored
- mRNA expression level of ISG15 (ISG15): almost fully suppressed
